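Exposure lasted 48 hours, with cells grown in 96-well plates and compounds tested at five concentrations. GI50 = concentration required for 50% inhibition of growth.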 Activity calls are given as the source filed them. No stated cut-off is given here; in the data, active = GI50 up to about 1.1 µM and inactive = higher.
Key:
Experiment in all cases: inhibition of tumour cell growth, NCI panel, 48 h
K562 = system: K562
OVCAR-8 = system: OVCAR-8
M14 = system: M14
UACC-62 = system: UACC-62
LOX IMVI = system: LOX IMVI
HCC 2998 = system: HCC 2998
SF-295 = system: SF-295
OVCAR-3 = system: OVCAR-3
Malme-3M = system: Malme-3M
SF-268 = system: SF-268
LXFL 529 = system: LXFL 529
NCI-H23 = system: NCI-H23
NCI-H460 = system: NCI-H460
SN12C = system: SN12C
COLO 205 = system: COLO 205
HL-60 = system: HL-60
T47D = system: T47D
MDA-N = system: MDA-N
MCF7 = system: MCF7
DU-145 = system: DU-145

Measured: GI50

Cc1cc(C)nc(NS(=O)(=O)c2ccc(Nc3c4ccccc4nc4c(C(=O)Nc5ccc(S(=O)(=O)Nc6cc(C)on6)cc5)ccc(Cl)c34)cc2)n1
inactive: K562 27.8 µM | OVCAR-8 26.4 µM | M14 20.1 µM | UACC-62 26.4 µM | LOX IMVI 22.2 µM | HCC 2998 17.3 µM | SF-295 20.7 µM | OVCAR-3 17 µM | Malme-3M 28.1 µM | SF-268 27.2 µM | LXFL 529 18.5 µM | NCI-H23 20.3 µM | NCI-H460 22 µM | SN12C 21.3 µM

COc1ccc(Nc2nc3cc(C(F)(F)F)ccc3nc2-c2ccccc2)cc1OC
inactive: K562 61 µM | OVCAR-8 25.8 µM | M14 38.6 µM | UACC-62 27.4 µM | LOX IMVI 19.8 µM | HCC 2998 > 100 µM | SF-295 11.3 µM | COLO 205 29.3 µM | OVCAR-3 18.7 µM | Malme-3M 21.7 µM | SF-268 38 µM | LXFL 529 49 µM | NCI-H23 25.7 µM | NCI-H460 27.7 µM | SN12C 39.7 µM

CCOC1=C2N=C(Cc3ccccc3F)N=C2C(=O)c2ccccc21
inactive: HL-60 > 100 µM | K562 > 100 µM | OVCAR-8 > 100 µM | M14 > 100 µM | UACC-62 > 100 µM | HCC 2998 > 100 µM | SF-295 > 100 µM | COLO 205 > 100 µM | OVCAR-3 > 100 µM | Malme-3M > 100 µM | SF-268 > 100 µM | LXFL 529 > 100 µM | NCI-H23 > 100 µM | NCI-H460 > 100 µM | SN12C > 100 µM

NC(CCCNCc1ccccc1)C(=O)O (centres undefined)
inactive: HL-60 > 100 µM | K562 > 100 µM | OVCAR-8 > 100 µM | M14 > 100 µM | UACC-62 > 100 µM | LOX IMVI > 100 µM | SF-295 > 10 µM | COLO 205 > 100 µM | OVCAR-3 > 100 µM | Malme-3M > 100 µM | SF-268 > 100 µM | LXFL 529 > 100 µM | NCI-H23 > 100 µM | NCI-H460 > 100 µM | SN12C > 100 µM

N#C/C(=C\c1cc(O)ccc1O)C(N)=O
inactive: HL-60 14 µM | K562 27 µM | OVCAR-8 50.6 µM | M14 38.6 µM | UACC-62 30.4 µM | HCC 2998 67.3 µM | SF-295 47.6 µM | COLO 205 33.3 µM | OVCAR-3 38.6 µM | Malme-3M 74 µM | SF-268 35.1 µM | LXFL 529 35.6 µM | NCI-H23 36.2 µM | NCI-H460 40.7 µM | SN12C 50.4 µM

CCCCc1ccc(Nc2nc(N)c3[nH]cnc3n2)cc1
inactive: HL-60 18.7 µM | K562 28.1 µM | OVCAR-8 15.8 µM | M14 31.2 µM | UACC-62 17.2 µM | LOX IMVI 18.4 µM | HCC 2998 24 µM | T47D 35.1 µM | SF-295 25.9 µM | COLO 205 18.3 µM | OVCAR-3 20.7 µM | Malme-3M 22.2 µM | SF-268 14.9 µM | MDA-N 16.9 µM | NCI-H23 17.1 µM | NCI-H460 22.9 µM | SN12C 13.9 µM | MCF7 18.4 µM | DU-145 19.2 µM

CCN(CC)Cc1ccc(Nc2c3ccccc3nc3ccccc23)cc1
active: HCC 2998 1.08 µM
inactive: HL-60 2.79 µM | K562 1.6 µM | OVCAR-8 3.05 µM | M14 1.77 µM | UACC-62 1.81 µM | LOX IMVI 1.56 µM | T47D 4.16 µM | SF-295 2.62 µM | COLO 205 1.71 µM | OVCAR-3 3.03 µM | Malme-3M 1.36 µM | SF-268 2.82 µM | MDA-N 1.53 µM | NCI-H23 1.99 µM | NCI-H460 1.19 µM | SN12C 2.31 µM | MCF7 1.71 µM | DU-145 2.37 µM

COc1ccc2nc3cc(Cl)ccc3c(NCCNC(=O)Cn3c(=O)n(C)c(=O)c4c3nc3c(c(=O)n(C)c(=O)n3C)[n+]4[O-])c2c1
inactive: HL-60 > 100 µM | K562 46.8 µM | OVCAR-8 2.47 µM | M14 > 81.8 µM | UACC-62 > 38.3 µM | LOX IMVI 38.3 µM | HCC 2998 30.2 µM | T47D 35.6 µM | SF-295 44.8 µM | COLO 205 > 67.1 µM | OVCAR-3 39.5 µM | Malme-3M 37.2 µM | SF-268 17.2 µM | MDA-N 46.3 µM | NCI-H23 21.2 µM | NCI-H460 44.7 µM | SN12C 36.7 µM | MCF7 33 µM | DU-145 > 84.3 µM

Cn1cc(-c2n[nH]c(-c3ccc(Cl)cc3)nc2=O)c2ccccc21
inactive: OVCAR-8 5.62 µM | M14 3.18 µM | UACC-62 1.73 µM | LOX IMVI 5.64 µM | HCC 2998 1.57 µM | T47D 9.59 µM | SF-295 1.43 µM | COLO 205 2.07 µM | Malme-3M 3.44 µM | SF-268 7.59 µM | NCI-H23 4.28 µM | NCI-H460 2.33 µM | SN12C 6.34 µM | MCF7 1.8 µM | DU-145 3.2 µM
active: HL-60 0.671 µM | K562 0.544 µM | OVCAR-3 0.979 µM | MDA-N 0.399 µM

CC(C)(C)c1cc(OCc2nnc3sc(-c4ccc(Cl)cc4)nn23)c(Cl)cc1OCc1nnc2sc(-c3ccc(Cl)cc3)nn12
inactive: HL-60 2.46 µM | K562 1.95 µM | OVCAR-8 3.93 µM | M14 3.06 µM | UACC-62 4.45 µM | LOX IMVI 5.04 µM | HCC 2998 2.34 µM | T47D 1.97 µM | SF-295 3.3 µM | COLO 205 7.46 µM | OVCAR-3 2.47 µM | Malme-3M 2.93 µM | SF-268 6.97 µM | NCI-H23 4.94 µM | NCI-H460 3.06 µM | SN12C 10.2 µM | MCF7 3.17 µM | DU-145 4.19 µM
active: MDA-N 0.644 µM

COC(=O)C1=C(C(=O)OC)C2(CCCCCC2=O)OC1=O (centres undefined)
inactive: HL-60 > 100 µM | K562 > 100 µM | OVCAR-8 > 100 µM | M14 > 100 µM | UACC-62 > 100 µM | HCC 2998 > 100 µM | SF-295 > 100 µM | COLO 205 > 100 µM | OVCAR-3 > 100 µM | Malme-3M > 100 µM | SF-268 > 100 µM | LXFL 529 > 100 µM | NCI-H23 > 100 µM | NCI-H460 > 100 µM | SN12C > 100 µM

Cc1c(C)c(C)c(CSC(=N)N)c(C)c1C
inactive: HL-60 8.57 µM | K562 12.2 µM | OVCAR-8 24.1 µM | M14 10.8 µM | UACC-62 11.9 µM | LOX IMVI 26.2 µM | HCC 2998 14.7 µM | T47D 14.6 µM | SF-295 7.52 µM | COLO 205 14.9 µM | OVCAR-3 16.5 µM | Malme-3M 15.9 µM | SF-268 18.3 µM | MDA-N 16.9 µM | NCI-H23 16.5 µM | NCI-H460 13.2 µM | SN12C 16.3 µM | MCF7 17.1 µM | DU-145 16.9 µM

Clc1ccc(C2=NN=C3C(c4ccccc4)=Nc4ccccc4N3C2)cc1
inactive: HL-60 2.56 µM | K562 2.88 µM | OVCAR-8 4.05 µM | M14 2.79 µM | UACC-62 5.3 µM | LOX IMVI 3.76 µM | HCC 2998 17.9 µM | T47D 1.45 µM | SF-295 11.1 µM | COLO 205 5.68 µM | OVCAR-3 2.02 µM | Malme-3M 5.45 µM | SF-268 2.88 µM | MDA-N 7.03 µM | NCI-H23 16.3 µM | NCI-H460 1.38 µM | SN12C 20.9 µM | MCF7 4.4 µM | DU-145 1.91 µM

COc1cc2c(cc1O)C1CC(CC3CCCCN31)OC(=O)/C=C\c1ccc(O)c-2c1 (centres undefined)
inactive: HL-60 27.8 µM | K562 28 µM | OVCAR-8 21.6 µM | M14 19.6 µM | UACC-62 18 µM | LOX IMVI 16.7 µM | HCC 2998 18.2 µM | T47D 18.5 µM | SF-295 13.5 µM | COLO 205 25.2 µM | OVCAR-3 21.3 µM | Malme-3M 19.5 µM | SF-268 24.9 µM | MDA-N 35.9 µM | NCI-H23 64 µM | NCI-H460 37.1 µM | SN12C 37.2 µM | MCF7 13.9 µM | DU-145 27.7 µM

Cc1cc2c(cc1C)C(=O)/C(=C/c1ccccc1C(=O)O)C2
inactive: HL-60 30.5 µM | K562 37.2 µM | OVCAR-8 38.4 µM | M14 > 100 µM | UACC-62 54.7 µM | LOX IMVI 25.9 µM | HCC 2998 27.4 µM | T47D 47.8 µM | SF-295 32.5 µM | COLO 205 19.5 µM | OVCAR-3 31.7 µM | Malme-3M 47.8 µM | SF-268 31.8 µM | MDA-N 47.8 µM | NCI-H23 19.6 µM | NCI-H460 40.5 µM | SN12C 45.2 µM | MCF7 50 µM | DU-145 > 100 µM

O=c1c(C(c2ccc(/C=C/c3ccccc3)cc2)c2c(O)oc3cc(O)ccc3c2=O)c(O)oc2cc(O)ccc12
inactive: HL-60 27.5 µM | K562 91.4 µM | OVCAR-8 98.6 µM | M14 > 100 µM | UACC-62 > 100 µM | LOX IMVI 36.7 µM | HCC 2998 > 100 µM | T47D 52.6 µM | SF-295 > 100 µM | COLO 205 > 100 µM | OVCAR-3 > 100 µM | Malme-3M > 100 µM | SF-268 33.7 µM | MDA-N 53.5 µM | NCI-H23 > 100 µM | NCI-H460 > 100 µM | SN12C 48.4 µM | MCF7 49.9 µM | DU-145 > 100 µM
